Test results as given in US20240294517A1, “2-[3-[1 [(QUINAZOLIN-4-YL)AMINO]ETHYL]PYRAZIN-2-YL]THIAZOLE-5-CARBONITRILE DERIVATIVES AND SIMILAR COMPOUNDS AS PESTICIDES” (SYNGENTA CROP PROTECTION AG, priority 2021, published 2024).

Key:
Diabrotica balteata = test: Activity against Diabrotica balteata (corn root worm), sprayed maize sprouts; assay type: in vivo; conditions: for percent effect (mortality or growth inhibition) at 200 ppm: 96 h, application rate 200 ppm, L2 larvae, 4 days after infestation, read-out: effect in at least one of the two categories (mortality or growth inhibition); for mortality at 3.125 ppm: concentration 3.125 ppm
Experimental: Maize sprouts placed onto an agar layer in 24-well microtiter plates were treated with aqueous test solutions prepared from 10′000 ppm DMSO stock solutions by spraying. After drying, the plates were infested with L2 larvae (6 to 10 per well). The samples were assessed for mortality and growth inhibition in comparison to untreated samples 4 days after infestation.
(§1) Activity of compound P5 according to the preparatory examples and of compound P.118 from WO 21/083936 against Plutella xylostella ([…]) and Diabrotica balteata (Example B2) is summarized in Table B9.

Chilo suppressalis = test: Activity against Chilo suppressalis (striped rice stemborer), artificial diet in 24-well plates; assay type: in vivo; conditions: 144 h, application rate 200 ppm, L2 larvae, 6 days after infestation
Experimental: 24-well microtiter plates with artificial diet were treated with aqueous test solutions prepared from 10′000 ppm DMSO stock solutions by pipetting. After drying, the plates were infested with L2 larvae (6-8 per well). The samples were assessed for mortality, anti-feeding effect, and growth inhibition in comparison to untreated samples 6 days after infestation. Control of Chilo suppressalis by a test sample is given when at least one of the categories mortality, anti-feedant effect, and growth inhibition is higher than the untreated sample.

Spodoptera littoralis = test: Activity against Spodoptera littoralis (Egyptian cotton leaf worm), sprayed cotton leaf discs; assay type: in vivo; conditions: foliar, 72 h, application rate 200 ppm, L1 larvae, 3 days after infestation
Experimental: Cotton leaf discs were placed onto agar in 24-well microtiter plates and sprayed with aqueous test solutions prepared from 10′000 ppm DMSO stock solutions. After drying the leaf discs were infested with five L1 larvae. The samples were assessed for mortality, anti-feeding effect, and growth inhibition in comparison to untreated samples 3 days after infestation. Control of Spodoptera littoralis by a test sample is given when at least one of the categories mortality, anti-feedant effect, and growth inhibition is higher than the untreated sample.

Plutella xylostella = test: Activity against Plutella xylostella (diamond back moth), artificial diet; assay type: in vivo; conditions: for percent effect (mortality or growth inhibition) at 200 ppm: 192 h, application rate 200 ppm, eggs, 8 days after infestation, read-out: effect in at least one of the two categories (mortality or growth inhibition); for mortality at 12.5 ppm: concentration 12.5 ppm
Experimental: 24-well microtiter plates with artificial diet were treated with aqueous test solutions prepared from 10′000 ppm DMSO stock solutions by pipetting. After drying, Plutella eggs were pipetted through a plastic stencil onto a gel blotting paper and the plate was closed with it. The samples were assessed for mortality and growth inhibition in comparison to untreated samples 8 days after infestation.
as §1

Euschistus heros = test: Activity against Euschistus heros (neotropical brown stink bug), sprayed soybean leaves; assay type: in vivo; conditions: 120 h, application rate 200 ppm, N2 nymphs, 5 days after infestation, read-out: effect in at least one of the two categories (mortality or growth inhibition)
Experimental: Soybean leaves on agar in 24-well microtiter plates were sprayed with aqueous test solutions prepared from 10′000 ppm DMSO stock solutions. After drying the leaves were infested with N2 nymphs. The samples were assessed for mortality and growth inhibition in comparison to untreated samples 5 days after infestation.

SMILES	percent effect (mortality or growth inhibition) at 200 ppm (Diabrotica balteata) [%]	percent control (mortality, anti-feedant effect or growth inhibition) at 200 ppm (Chilo suppressalis) [%]	percent control (mortality, anti-feedant effect or growth inhibition) at 200 ppm (Spodoptera littoralis) [%]	percent effect (mortality or growth inhibition) at 200 ppm (Plutella xylostella) [%]	percent effect (mortality or growth inhibition) at 200 ppm (Euschistus heros) [%]	melting point [°C]	mortality at 3.125 ppm (Diabrotica balteata) [%]	mortality at 12.5 ppm (Plutella xylostella) [%]
C[C@@H](c1ncnn1-c1ncc(C#N)s1)N(C)c1ncnc2c(C(F)(F)F)cc(Cl)cc12 [P11, 2-[5-[(1S)-1-[[6-chloro-8-(trifluoromethyl)quinazolin-4-yl]-methyl-amino]ethyl]-1,2,4-triazol-1-yl]thiazole-5-carbonitrile]	≥ 80	≥ 80	≥ 80	≥ 80	–	–	–	–
CC(Nc1ncnc2c(C(F)(F)F)cc(Cl)cc12)c1nccnc1-c1ncsn1 (stereo not shown) [P13, 6-chloro-N-[1-[3-(1,2,4-thiadiazol-3-yl)pyrazin-2-yl]ethyl]-8-(trifluoromethyl)quinazolin-4-amine]	≥ 80	–	≥ 80	≥ 80	–	–	–	–
C[C@H](Nc1ncnc2c(C(F)(F)F)cc(Cl)cc12)c1ncnn1-c1ncc(C#N)s1 [P10, 2-[5-[(1S)-1-[[6-chloro-8-(trifluoromethyl)quinazolin-4-yl]amino]ethyl]-1,2,4-triazol-1-yl]thiazole-5-carbonitrile]	≥ 80	≥ 80	≥ 80	≥ 80	≥ 80	–	–	–
CC(Nc1nc(Cl)nc2c(Br)cc(C(F)(F)F)cc12)c1nccnc1-c1ncc(Br)s1 (stereo not shown) [P3, 8-bromo-N-[1-[3-(5-bromothiazol-2-yl)pyrazin-2-yl]ethyl]-2-chloro-6-(trifluoromethyl)quinazolin-4-amine]	–	–	–	–	–	197 to 199	–	–
C[C@H](Nc1nc(Cl)nc2c(Br)cc(C(F)(F)F)cc12)c1ncnn1-c1ncc(C#N)s1 [P9, 2-[5-[(1S)-1-[[8-bromo-2-chloro-6-(trifluoromethyl)quinazolin-4-yl]amino]ethyl]-1,2,4-triazol-1-yl]thiazole-5-carbonitrile]	≥ 80	≥ 80	–	≥ 80	–	–	–	–
CC(Nc1ncnc2c(C(F)(F)F)cc(C(F)(F)F)cc12)c1nccnc1-c1ncc(C#N)s1 (stereo not shown) [P7, 2-[3-[1-[[6,8-bis(trifluoromethyl)quinazolin-4-yl]amino]ethyl]pyrazin-2-yl]thiazole-5-carbonitrile]	≥ 80	≥ 80	≥ 80	≥ 80	–	–	–	–
CC(Nc1ncnc2c(C(F)(F)F)cc(Cl)cc12)c1nccnc1-c1ccc(C#N)cn1 (stereo not shown) [P.118, reference compound]	–	–	–	–	–	–	0	0
CC(Nc1ncnc2c(Br)cc(Br)cc12)c1nccnc1-c1ncsn1 (stereo not shown) [P16, 6,8-dibromo-N-[1-[3-(1,2,4-thiadiazol-3-yl)pyrazin-2-yl]ethyl]quinazolin-4-amine]	≥ 80	–	≥ 80	≥ 80	–	–	–	–
C[C@H](Nc1nc(=O)[nH]c2c(Br)cc(C(F)(F)F)cc12)c1ncnn1-c1ncc(C#N)s1 [P2, 2-[5-[(1S)-1-[[8-bromo-2-oxo-6-(trifluoromethyl)-1H-quinazolin-4-yl]amino]ethyl]-1,2,4-triazol-1-yl]thiazole-5-carbonitrile]	–	≥ 80	≥ 80	≥ 80	–	–	–	–
CC(Nc1ncnc2c(Cl)cc(C(F)(F)F)cc12)c1nccnc1-c1ncc(C#N)s1 (stereo not shown) [P12, 2-[3-[1-[[8-chloro-6-(trifluoromethyl)quinazolin-4-yl]amino]ethyl]pyrazin-2-yl]thiazole-5-carbonitrile]	≥ 80	≥ 80	≥ 80	≥ 80	–	–	–	–
C[C@H](Nc1ncnc2c(Cl)cc(S(=O)(=O)C(F)(F)F)cc12)c1ncnn1-c1ncc(C#N)s1 [P22, 2-[5-[(1S)-1-[[8-chloro-6-(trifluoromethylsulfonyl)quinazolin-4-yl]amino]ethyl]-1,2,4-triazol-1-yl]thiazole-5-carbonitrile]	≥ 80	≥ 80	≥ 80	≥ 80	–	–	–	–
C[C@@H](c1ncnn1-c1ncc(C#N)s1)N(C)c1ncnc2c(Cl)cc(C(F)(F)F)cc12 [P17, 2-[5-[(1S)-1-[[8-chloro-6-(trifluoromethyl)quinazolin-4-yl]-methyl-amino]ethyl]-1,2,4-triazol-1-yl]thiazole-5-carbonitrile]	≥ 80	≥ 80	≥ 80	≥ 80	≥ 80	–	–	–
CC(Nc1nc(=O)[nH]c2c(Br)cc(C(F)(F)F)cc12)c1nccnc1-c1ncc(Br)s1 (stereo not shown) [P4, 8-bromo-4-[1-[3-(5-bromothiazol-2-yl)pyrazin-2-yl]ethylamino]-6-(trifluoromethyl)-1H-quinazolin-2-one]	≥ 80	≥ 80	–	≥ 80	–	–	–	–
CC(Nc1ncnc2c(C(F)(F)F)cc(C(F)(F)F)cc12)c1nccnc1-c1ncc(Br)s1 (stereo not shown) [P8, N-[1-[3-(5-bromothiazol-2-yl)pyrazin-2-yl]ethyl]-6,8-bis(trifluoromethyl)quinazolin-4-amine]	≥ 80	≥ 80	–	≥ 80	–	–	–	–
CC(Nc1nc(=O)[nH]c2c(Br)cc(C(F)(F)F)cc12)c1nccnc1-c1ncc(C#N)s1 (stereo not shown) [P1, 2-[3-[1-[[8-bromo-2-oxo-6-(trifluoromethyl)-1H-quinazolin-4-yl]amino]ethyl]pyrazin-2-yl]thiazole-5-carbonitrile]	≥ 80	≥ 80	–	≥ 80	–	–	–	–
CC(Nc1ncnc2c(C(F)(F)F)cc(Cl)cc12)c1nccnc1-c1ncc(Br)s1 (stereo not shown) [P6, N-[1-[3-(5-bromothiazol-2-yl)pyrazin-2-yl]ethyl]-6-chloro-8-(trifluoromethyl)quinazolin-4-amine]	≥ 80	≥ 80	–	–	–	–	–	–
CC(Nc1ncnc2c(Cl)cc(C(F)(F)F)cc12)c1nccnc1-c1ncsn1 (stereo not shown) [P18, 8-chloro-N-[1-[3-(1,2,4-thiadiazol-3-yl)pyrazin-2-yl]ethyl]-6-(trifluoromethyl)quinazolin-4-amine]	≥ 80	–	–	≥ 80	–	–	–	–
CC(Nc1ncnc2c(C(F)(F)F)cc(Cl)cc12)c1nccnc1-c1ncc(C#N)s1 (stereo not shown) [P5, 2-[3-[1-[[6-chloro-8-(trifluoromethyl)quinazolin-4-yl]amino]ethyl]pyrazin-2-yl]thiazole-5-carbonitrile]	≥ 80	≥ 80	≥ 80	≥ 80	–	–	100	50
CC(Nc1ncnc2c(Br)cc(Br)cc12)c1nccnc1-c1ncc(C#N)s1 (stereo not shown) [P19, 2-[3-[1-[(6,8-dibromoquinazolin-4-yl)amino]ethyl]pyrazin-2-yl]thiazole-5-carbonitrile]	≥ 80	≥ 80	≥ 80	≥ 80	–	–	–	–
